# Patent US20240016781A1, “TREATMENT OF KRAS MUTANT CANCERS” (MEI Pharma, Inc., priority 2020, published 2024)
# Read-outs that look alike come from different tables or passages of the source.
# What was measured:
# Assay in all cases: 72-hour CellTiter-Glo 2.0 growth inhibition screen (single agent, 9x9 combination dose matrix);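 on Best CI Level: inhibition effect level at which the best CI was calculated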
# Assay type in all cases: cell-based
# Panc 04.03 = details: for EC50 / Response Area: Panc 04.03, Pancreas
# SW48 = details: for EC50: SW48, 72 h
# HCC1171 = tested on: HCC1171;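 on Best CI Level: inhibition effect level at which the best CI was calculated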
# HPAF-II = tested on: HPAF-II;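 on Best CI Level: inhibition effect level at which the best CI was calculated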
# KYSE-410 = details: for EC50: KYSE-410, 72 h
# [1] = Panc 04.03 (KRAS G12D), enhancer + MEI-522 (Voruciclib), 72 h;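 on Best CI Level: inhibition effect level at which the best CI was calculated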
# [2] = enhancer combined with MEI-522 (Voruciclib), Panc 04.03 (Pancreas), 72 hours, inhibition data
# [3] = Homo sapiens, SW48, Colorectal, Additional Single Agent Responses (inhibition, % I), 72 h
# [4] = Homo sapiens, SW48, Colorectal, growth inhibition (GI) curve, single agent, 72 h
# [5] = SW48 (KRAS WT), enhancer + MEI-522 (Voruciclib), 72 h;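 on Best CI Level: inhibition effect level at which the best CI was calculated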
# [6] = enhancer combined with MEI-522 (Voruciclib), SW48 (Colorectal), 72 hours, inhibition data
# [7] = HCC1171 (KRAS G12C), enhancer + MEI-522 (Voruciclib), 72 h;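 on Best CI Level: inhibition effect level at which the best CI was calculated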
# [8] = HCC1171, Lung, Additional Single Agent Responses (inhibition, % I), 72 h
# [9] = enhancer combined with MEI-522 (Voruciclib), HCC1171 (Lung), 72 hours, inhibition data
# [10] = HPAF-II (KRAS G12D), enhancer + MEI-522 (Voruciclib), 72 h;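 on Best CI Level: inhibition effect level at which the best CI was calculated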
# [11] = enhancer combined with MEI-522 (Voruciclib), HPAF-II (Pancreas), 72 hours, inhibition data
# [12] = Homo sapiens, KYSE-410, Esophageal, Additional Single Agent Responses (inhibition, % I), 72 h
# [13] = Homo sapiens, KYSE-410, Esophageal, growth inhibition (GI) curve, single agent, 72 h
# [14] = KYSE-410 (KRAS G12C), enhancer + MEI-522 (Voruciclib), 72 h;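 on Best CI Level: inhibition effect level at which the best CI was calculated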
# [15] = enhancer combined with MEI-522 (Voruciclib), KYSE-410 (Esophageal), 72 hours, inhibition data
smiles,measurement,setting,value
CN1CCN(c2ccc(OC(F)(F)F)c(Nc3ncc4c(n3)-c3c(c(C(N)=O)nn3CCO)CC4)c2)CC1 [Onvansertib],GI50,"Panc 04.03; Homo sapiens, Panc 04.03, 72 h",50.8 nM
same,EC50,"Panc 04.03; Homo sapiens, Panc 04.03, 72 h, Additional Single Agent Responses (inhibition, % I), 72 h",18.7 nM
same,EC50,"Panc 04.03; Homo sapiens, Panc 04.03, 72 h, growth inhibition (GI) curve, single agent, 72 h",19.2 nM
same,Emax,"Panc 04.03; Homo sapiens, Panc 04.03, 72 h, read-out: Max Response (% GI)",70%
same,Emax,"Panc 04.03; Homo sapiens, Panc 04.03, 72 h, read-out: Max Response (% I)",54%
same,Best CI,Panc 04.03; [1],0.32
same,Bliss Volume,Panc 04.03; [1],2.32
same,HSA volume,Panc 04.03; [1],0.85
same,Loewe Volume,Panc 04.03; [1],0.87
same,Synergy Score,Panc 04.03; [1],1.99
same,Response Area,"Panc 04.03; Additional Single Agent Responses (inhibition, % I), 72 h",1.94
same,Response Area,"Panc 04.03; growth inhibition (GI), AUC, single agent, 72 h",2.60
same,Best CI,Panc 04.03; [2],0.64
same,Best CI Level,Panc 04.03; [2],20
same,Bliss Volume,Panc 04.03; [2],0.17
same,HSA volume,Panc 04.03; [2],0.61
same,Loewe Volume,Panc 04.03; [2],0.89
same,Synergy Score,Panc 04.03; [2],0.98
same,EC50,SW48; [3],13.8 nM
same,EC50,SW48; [4],15.4 nM
same,IC50,SW48; [3],14.3 nM
same,Emax,"SW48; Homo sapiens, SW48, Colorectal, Additional Single Agent Responses, 72 h, read-out: Max Response (% I)",95%
same,GI50,SW48; [4],13.4 nM
same,Emax,"SW48; Homo sapiens, SW48, Colorectal, growth inhibition (GI), single agent, 72 h, read-out: Max Response (% GI)",177%
same,Best CI,SW48; [5],0.72
same,Bliss Volume,SW48; [5],6.27
same,HSA volume,SW48; [5],−3.43
same,Loewe Volume,SW48; [5],−1.93
same,Synergy Score,SW48; [5],7.50
same,Response Area,"SW48; SW48, Colorectal, Additional Single Agent Responses (inhibition, % I), 72 h",4.36
same,Response Area,"SW48; SW48, Colorectal, growth inhibition (GI), AUC, single agent, 72 h",7.09
same,Best CI,SW48; [6],0.76
same,Bliss Volume,SW48; [6],−0.78
same,HSA volume,SW48; [6],−0.51
same,Loewe Volume,SW48; [6],−0.74
same,Synergy Score,SW48; [6],1.28
same,Best CI Level,"SW48; enhancer combined with MEI-522 (Voruciclib), SW48 (Colorectal), 72 hours, inhibition data, unit assumed",20%
same,Best CI,HCC1171; [7],1.01
same,Bliss Volume,HCC1171; [7],−2.83
same,HSA volume,HCC1171; [7],−2.66
same,Loewe Volume,HCC1171; [7],−1.72
same,Synergy Score,HCC1171; [7],1.86
same,EC50,HCC1171; [8],15.5 nM
same,Response Area,HCC1171; [8],1.75
same,Emax,"HCC1171; HCC1171, Lung, Additional Single Agent Responses, 72 h, read-out: Max Response (% I)",46%
same,GI50,"HCC1171; HCC1171, Lung, growth inhibition (GI) curve, single agent, 72 h",33 nM
same,Response Area,"HCC1171; HCC1171, Lung, growth inhibition (GI), AUC, single agent, 72 h",3.02
same,Emax,"HCC1171; HCC1171, Lung, growth inhibition (GI), single agent, 72 h, read-out: Max Response (% GI)",81%
same,Best CI,HCC1171; [9],0.62
same,Bliss Volume,HCC1171; [9],−3.14
same,HSA volume,HCC1171; [9],−1.61
same,Loewe Volume,HCC1171; [9],−1.03
same,Synergy Score,HCC1171; [9],0.59
same,Best CI Level,"HCC1171; enhancer combined with MEI-522 (Voruciclib), HCC1171 (Lung), 72 hours, inhibition data, unit assumed",50%
same,Best CI,HPAF-II; [10],0.70
same,Bliss Volume,HPAF-II; [10],−0.18
same,HSA volume,HPAF-II; [10],0.48
same,Loewe Volume,HPAF-II; [10],−0.22
same,Synergy Score,HPAF-II; [10],1.29
same,Response Area,"HPAF-II; HPAF-II, Pancreas, Additional Single Agent Responses (inhibition, % I), 72 h",2.97
same,Response Area,"HPAF-II; HPAF-II, Pancreas, growth inhibition (GI), AUC, single agent, 72 h",3.98
same,EC50,"HPAF-II; Homo sapiens, HPAF-II, 72 h, Pancreas, Additional Single Agent Responses (inhibition, % I)",20.9 nM
same,EC50,"HPAF-II; Homo sapiens, HPAF-II, 72 h, Pancreas, growth inhibition (GI) curve, single agent",21 nM
same,IC50,"HPAF-II; Homo sapiens, HPAF-II, Pancreas, Additional Single Agent Responses (inhibition, % I), 72 h",35.9 nM
same,Emax,"HPAF-II; Homo sapiens, HPAF-II, Pancreas, Additional Single Agent Responses, 72 h, read-out: Max Response (% I)",65%
same,GI50,"HPAF-II; Homo sapiens, HPAF-II, Pancreas, growth inhibition (GI) curve, single agent, 72 h",24.2 nM
same,Emax,"HPAF-II; Homo sapiens, HPAF-II, Pancreas, growth inhibition (GI), single agent, 72 h, read-out: Max Response (% GI)",87%
same,Best CI,HPAF-II; [11],0.85
same,Bliss Volume,HPAF-II; [11],−1.20
same,HSA volume,HPAF-II; [11],0.37
same,Loewe Volume,HPAF-II; [11],−0.12
same,Synergy Score,HPAF-II; [11],0.74
same,Best CI Level,"HPAF-II; enhancer combined with MEI-522 (Voruciclib), HPAF-II (Pancreas), 72 hours, inhibition data, unit assumed",20%
same,EC50,KYSE-410; [12],34.9 nM
same,EC50,KYSE-410; [13],34.7 nM
same,IC50,KYSE-410; [12],55.5 nM
same,Emax,"KYSE-410; Homo sapiens, KYSE-410, Esophageal, Additional Single Agent Responses, 72 h, read-out: Max Response (% I)",65%
same,GI50,KYSE-410; [13],43.1 nM
same,Emax,"KYSE-410; Homo sapiens, KYSE-410, Esophageal, growth inhibition (GI), single agent, 72 h, read-out: Max Response (% GI)",78%
same,Best CI,KYSE-410; [14],0.60
same,Bliss Volume,KYSE-410; [14],−1.39
same,HSA volume,KYSE-410; [14],−2.18
same,Loewe Volume,KYSE-410; [14],−2.01
same,Synergy Score,KYSE-410; [14],0.29
same,Response Area,"KYSE-410; KYSE-410, Esophageal, Additional Single Agent Responses (inhibition, % I), 72 h",2.89
same,Response Area,"KYSE-410; KYSE-410, Esophageal, growth inhibition (GI), AUC, single agent, 72 h",3.49
same,Best CI,KYSE-410; [15],0.68
same,Bliss Volume,KYSE-410; [15],−1.63
same,HSA volume,KYSE-410; [15],−1.72
same,Loewe Volume,KYSE-410; [15],−1.53
same,Synergy Score,KYSE-410; [15],0.20
same,Best CI Level,"KYSE-410; enhancer combined with MEI-522 (Voruciclib), KYSE-410 (Esophageal), 72 hours, inhibition data, unit assumed",20%
